Here are results for 20 compounds from PubChem BioAssay AID200 (DTP/NCI, 2004).

Several values for one entry are separate records, joined by “and”; a condition that tells them apart may be missing. Identical values can stand only once. Inconclusive results and toxic doses are left out.

In the assay the test system is B6C3F1 mice, B16 melanoma ip, median survival T/C. Briefly: NCI In Vivo Anticancer Drug Screen. Data for tumor model B16 Melanoma (intraperitoneal) in B6C3F1 mice. As to conditions: endpoint: median survival time, schedule: Q01DX009 (ip), higher = longer survival. The method in brief:
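Values are T/C ratios: the measurement in treated animals divided by that in vehicle-treated controls, using survival or tumor size in mice carrying transplantable tumors.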

Setting [1] is: dose: 50.0 mg/kg/injection, vehicle: saline with Tween-80.
Where [2] appears, read: dose: 100.0 mg/kg/injection, vehicle: saline with Tween-80.
[3] abbreviates: dose: 200.0 mg/kg/injection, vehicle: saline with Tween-80.
Setting [4] is: dose: 6.25 mg/kg/injection, vehicle: saline with Tween-80.
[5] abbreviates: dose: 12.5 mg/kg/injection, vehicle: saline with Tween-80.
The mark [6] stands for this setting: dose: 25.0 mg/kg/injection, vehicle: saline with Tween-80.
Where [7] appears, read: dose: 6.25 mg/kg/injection, vehicle: Klucel (hydroxypropylcellulose) (HPC).
Where [8] appears, read: dose: 12.5 mg/kg/injection, vehicle: Klucel (hydroxypropylcellulose) (HPC).
[9] abbreviates: dose: 25.0 mg/kg/injection, vehicle: Klucel (hydroxypropylcellulose) (HPC).
The mark [10] stands for this setting: dose: 50.0 mg/kg/injection, vehicle: Klucel (hydroxypropylcellulose) (HPC).
The mark [11] stands for this setting: dose: 400.0 mg/kg/injection, vehicle: saline with Tween-80.
Where [12] appears, read: dose: 3.12 mg/kg/injection, vehicle: Klucel (hydroxypropylcellulose) (HPC).
The mark [13] stands for this setting: dose: 25.0 mg/kg/injection, vehicle: saline.

For `C/C(=N\NC(=S)N1CCN(c2ccccn2)CC1)c1ccccn1`, the T/C runs as follows: (dose: 6.25 mg/kg/injection, vehicle: water) 99 % of control; (dose: 12.5 mg/kg/injection, vehicle: water) 99 % of control; (dose: 25.0 mg/kg/injection, vehicle: water) 111 % of control.
Regarding `Cc1nc(C(Cl)(Cl)Cl)[nH]c(=O)c1SCCO`, the T/C runs as follows: (dose: 25.0 mg/kg/injection, vehicle: distilled water + alcohol) 111 % of control; (dose: 50.0 mg/kg/injection, vehicle: distilled water + alcohol) 107 % of control; (dose: 100.0 mg/kg/injection, vehicle: distilled water + alcohol) 102 % of control; (dose: 200.0 mg/kg/injection, vehicle: distilled water + alcohol) 106 % of control; (dose: 400.0 mg/kg/injection, vehicle: distilled water + alcohol) 119 % of control.
On to `Nc1ncn(C2CC(O)C(CO)O2)c(=O)n1` (centres undefined), for which the T/C reads like this: (dose: 0.25 mg/kg/injection, vehicle: Klucel (hydroxypropylcellulose) (HPC)) 86 % of control; (dose: 0.25 mg/kg/injection, vehicle: saline) 117 % of control; (dose: 15.62 micrograms/kg/injection, vehicle: Klucel (hydroxypropylcellulose) (HPC)) 87 % of control; (dose: 31.25 micrograms/kg/injection, vehicle: Klucel (hydroxypropylcellulose) (HPC)) 86 % of control; (dose: 125.0 micrograms/kg/injection, vehicle: Klucel (hydroxypropylcellulose) (HPC)) 114 % of control; (dose: 250.0 micrograms/kg/injection, vehicle: Klucel (hydroxypropylcellulose) (HPC)) 97 % of control.
As for `N#CCc1c[nH]c2ccc([N+](=O)[O-])cc12`, the T/C is, setting by setting: under setting [1], 102 % of control; under setting [2], 100 % of control; under setting [3], 108 % of control.
In the case of `Nc1nc2ccc(NCc3ccc(C(=O)NC(CCC(=O)O)C(=O)O)cc3)cc2c(=O)[nH]1` (centres undefined), the T/C by setting is: under setting [4], 88 % of control; under setting [5], 91 % of control; under setting [6], 97 % of control; under setting [1], 91 % of control; under setting [2], 93 % of control.
As to `Nc1nc(-c2ccccc2)c(N=O)c(=O)[nH]1`, the T/C (dose: 14.0 mg/kg/injection, vehicle: saline with Tween-80) is 96 % of control; the T/C (dose: 28.0 mg/kg/injection, vehicle: saline with Tween-80) is 94 % of control; the T/C (dose: 56.0 mg/kg/injection, vehicle: saline with Tween-80) was 91 % of control; the T/C (dose: 112.0 mg/kg/injection, vehicle: saline with Tween-80) was 101 % of control.
For the compound `C=C1C(=O)O[C@@H]2[C@H]3O[C@]3(C)CCC=C(C)CC[C@@H]12`, the T/C under setting [7] was 91 % of control, the T/C under setting [8] is 97 % of control, the T/C under setting [9] is 98 % of control and the T/C under setting [10] was 108 % of control.
For `Cc1ccc(C(CCCl)OC(C)C)cc1` (centres undefined), the T/C under setting [2] is 97 % of control, the T/C under setting [3] is 94 % of control and the T/C under setting [11] is 94 % of control.
`CN(C)N=Nc1ccc2c(c1)N(C)c1ccc(F)cc1S2`: the T/C was 106 % of control (dose: 6.25 mg/kg/injection, vehicle: other); 113 % of control (dose: 12.5 mg/kg/injection, vehicle: other); 115 % of control (dose: 25.0 mg/kg/injection, vehicle: other); 120 % of control (dose: 50.0 mg/kg/injection, vehicle: other); 117 % of control (dose: 100.0 mg/kg/injection, vehicle: other).
Regarding `CC(=O)OCC1OC(OC2=C(CC=C(C)C)C(=O)c3ccccc3C2=O)C(OC(C)=O)C(OC(C)=O)C1OC(C)=O` (centres undefined), the T/C under setting [12] is 104 % of control; the T/C under setting [7] was 95 % of control; the T/C under setting [8] was 98 % of control; the T/C under setting [9] was 106 % of control; the T/C under setting [10] is 94 % of control.
As to `Nc1nc(Cl)c2ncn(C3OC(CO)C(O)C3O)c2n1` (centres undefined), the T/C under setting [2] was 98 % of control, the T/C under setting [3] is 100 % of control and the T/C under setting [11] is 101 % of control.
As for `CN=C(N)NCCCCCCCCNC(N)=NC`, the T/C runs as follows: under setting [4], 102 % of control; under setting [5], 98 % of control.
For `COc1cc(C2c3cc4c(cc3[C@@H](OC3OC5CO[C@@H](C)OC5C(O)C3O)[C@H]3COC(=O)C23)OCO4)cc(OC)c1OC` (some centres undefined), the T/C (dose: 21.6 mg/kg/injection, vehicle: suspension in saline) is 120 % of control; the T/C under setting [13] is 150 % of control; the T/C (dose: 50.0 mg/kg/injection, vehicle: saline) is 160 % of control; the T/C (dose: 60.0 mg/kg/injection, vehicle: suspension in saline) was 162 % of control; the T/C (dose: 100.0 mg/kg/injection, vehicle: saline) is 193 % of control; the T/C (dose: 100.0 mg/kg/injection, vehicle: suspension in saline) was 183 % of control.
Turning to `[N-]=[N+]=C1N=CN=C1c1ncn[nH]1`, the T/C is, setting by setting: under setting [12], 104 % of control; under setting [7], 113 % of control; under setting [8], 121 % of control.
For `Cc1ccc(C2NC(=S)N3C(c4ccc(C)cc4)NC(=S)N23)cc1` (centres undefined), the T/C runs as follows: under setting [9], 119 % of control; under setting [10], 114 % of control; (dose: 100.0 mg/kg/injection, vehicle: Klucel (hydroxypropylcellulose) (HPC)) 118 % of control; (dose: 200.0 mg/kg/injection, vehicle: Klucel (hydroxypropylcellulose) (HPC)) 109 % of control and 88 % of control; (dose: 400.0 mg/kg/injection, vehicle: Klucel (hydroxypropylcellulose) (HPC)) 114 % of control and 105 % of control; (dose: 800.0 mg/kg/injection, vehicle: Klucel (hydroxypropylcellulose) (HPC)) 101 % of control.
As for `Sc1ccccc1-n1c(-c2ccccc2)ccc1-c1ccccc1`, the T/C runs as follows: under setting [1], 104 % of control; under setting [2], 87 % of control.
In the case of `COc1ccc(Cl)[n+]([O-])n1`, the T/C was 93 % of control under setting [12]; 88 % of control under setting [7]; 94 % of control under setting [8]; 99 % of control under setting [9]; 93 % of control under setting [10].
Take `CC1c2ccccc2CC(CCN(C)C)c2ccccc21` (centres undefined): the T/C under setting [4] is 104 % of control, the T/C under setting [5] is 98 % of control, the T/C under setting [6] is 99 % of control and the T/C under setting [1] was 95 % of control.
Consider `S=C1NCc2cncnc2N1`, for which the T/C runs as follows: under setting [12], 108 % of control; under setting [7], 107 % of control; under setting [8], 88 % of control and 102 % of control.
Turning to `CCCNc1ncnc2c1cnn2C`, the T/C is 91 % of control (dose: 12.5 mg/kg/injection, vehicle: saline) and 93 % of control under setting [13].
